For one assay, the target named is human orexin receptor 1 (Homo sapiens (Human), UniProt O43613). Description: Orexin antagonist activity, intracellular calcium FLIPR assay, RBL-2H3 cells expressing human orexin receptor 1. It counts as cell-based. Conditions: RBL-2H3 cells stably expressing human orexin receptor 1; orexin-A at approx. 80% maximal response; compound added 15 minutes before; read-out: Human Orexin1R IC50.

The target in a further assay is human orexin receptor 2 (Homo sapiens (Human), UniProt O43614). The experiment in a line: Orexin antagonist activity, intracellular calcium FLIPR assay, RBL-2H3 cells expressing human orexin receptor 2. It counts as cell-based. The settings on record: RBL-2H3 cells stably expressing human orexin receptor 2; orexin-A at approx. 80% maximal response; compound added 15 minutes before; read-out: Human Orexin2R IC50.
Sequence of human orexin receptor 2 (O43614 whole entry): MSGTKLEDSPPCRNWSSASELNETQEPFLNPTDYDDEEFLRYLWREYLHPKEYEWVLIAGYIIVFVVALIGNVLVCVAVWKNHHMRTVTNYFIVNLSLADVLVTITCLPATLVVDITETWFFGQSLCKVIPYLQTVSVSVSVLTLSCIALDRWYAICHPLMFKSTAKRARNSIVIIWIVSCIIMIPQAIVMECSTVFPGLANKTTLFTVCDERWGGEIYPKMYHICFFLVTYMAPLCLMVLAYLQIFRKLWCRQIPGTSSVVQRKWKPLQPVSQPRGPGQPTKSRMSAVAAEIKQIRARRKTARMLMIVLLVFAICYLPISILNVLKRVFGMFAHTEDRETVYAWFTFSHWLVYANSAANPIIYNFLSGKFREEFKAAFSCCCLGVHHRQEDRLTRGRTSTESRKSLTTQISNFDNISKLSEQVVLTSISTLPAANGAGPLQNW

Sequence of human orexin receptor 1 (O43613 whole entry): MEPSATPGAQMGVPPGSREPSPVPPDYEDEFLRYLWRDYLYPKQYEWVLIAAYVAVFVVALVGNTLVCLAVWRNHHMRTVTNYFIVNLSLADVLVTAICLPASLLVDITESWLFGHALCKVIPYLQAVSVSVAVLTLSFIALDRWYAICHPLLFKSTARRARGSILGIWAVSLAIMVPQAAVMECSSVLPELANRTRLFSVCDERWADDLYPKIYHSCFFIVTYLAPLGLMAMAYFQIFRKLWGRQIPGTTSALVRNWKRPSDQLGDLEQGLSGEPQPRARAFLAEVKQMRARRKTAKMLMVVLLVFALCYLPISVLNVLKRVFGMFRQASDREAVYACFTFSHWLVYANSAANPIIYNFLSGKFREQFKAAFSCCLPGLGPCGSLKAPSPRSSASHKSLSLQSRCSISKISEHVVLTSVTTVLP

As to `CC1(Nc2ccc(C(F)(F)F)cn2)CCCC1NC(=O)c1ncccc1-c1ncccn1` (stereo not shown) [Example 156, N-(2-Methyl-2-{[5-(trifluoromethyl)pyridin-2-yl]amino}cyclopentyl)-3-(pyrimidin-2-yl)pyridine-2-carboxamide], the IC50 at human orexin receptor 1 was 11 nM; at human orexin receptor 2 it was more than 10000 nM.
Taken in the same sequence, the figures for `O=C(N[C@H]1CC(F)(F)C[C@@H]1Nc1ccc(OC(F)F)cn1)c1ccccc1-n1nccn1` [Example 157, N-[(1S,2S)-2-{[5-(Difluoromethoxy)pyridin-2-yl]amino}-4,4-difluorocyclopentyl]-2-(2H-1,2,3-triazol-2-yl)benzamide] were 236 nM and more than 10000 nM.
The matching figures for `CCc1nc(C(F)(F)F)cnc1N[C@H]1CCC[C@@H]1NC(=O)c1cc(F)ccc1-c1ncccn1` [Example 158, N-[(1S,2S)-2-{[3-Ethyl-5-(trifluoromethyl)pyrazin-2-yl]amino}cyclopentyl]-5-fluoro-2-(pyrimidin-2-yl)benzamide]: 5 nM and more than 10000 nM.
Taken in the same sequence, the figures for `Cc1nc(C(F)(F)F)cnc1N[C@H]1CCC[C@@H]1NC(=O)c1ncccc1-c1ncccn1` [Example 159, N-[(1S,2S)-2-{[3-Methyl-5-(trifluoromethyl)pyrazin-2-yl]amino}cyclopentyl]-3-(pyrimidin-2-yl)pyridine-2-carboxamide] were 25 nM and more than 10000 nM.
With `Cc1nnc(-c2ccccc2C(=O)N[C@H]2CCC[C@]2(C)Nc2cnc(C(F)(F)F)cn2)o1` [Example 160, 2-(5-Methyl-1,3,4-oxadiazol-2-yl)-N-[(1S,2S)-2-methyl-2-{[5-(trifluoromethyl)pyrazin-2-yl]amino}cyclopentyl]benzamide], the IC50 is 29 nM at human orexin receptor 1 and more than 10000 nM on human orexin receptor 2.

For the origin of these results see patent US9156829B2, “Cycloalkyl and heterocycloalkyl compounds as orexin receptor antagonists” (Takeda Pharmaceutical Company Limited, priority 2014, dated 2015).
